Reference: ChEMBL document CHEMBL3045884, “Synthesis, characterization, anticancer, and antioxidant activity of some new thiazolidin-4-ones in MCF-7 cells” (Med Chem Res, 2013)
Converted amounts (≈) assume the structure as drawn. The source made the active and inactive calls. The calls are words filed in the database; no cut-off is given here.

How the values were obtained:
MCF7 [1] = assay: Anticancer activity against Homo sapiens (human) MCF-7 cells assessed as cell survival at 0.1 ug/ml after 24 hr by MTT assay (reference value: 100%); type: functional; conditions: MCF7, 24 h, read-out: Survival
MCF7 [2] = assay: Anticancer activity against Homo sapiens (human) MCF-7 cells assessed as cell survival at 1 ug/ml after 24 hr by MTT assay (reference value: 100%); type: functional; conditions: MCF7, 24 h, read-out: Survival
MCF7 [3] = assay: Anticancer activity against Homo sapiens (human) MCF-7 cells assessed as inhibition of cell survival after 24 hr by MTT assay; type: functional, cell-based; conditions: MCF7, 24 h
MCF7 [4] = assay: Anticancer activity against Homo sapiens (human) MCF-7 cells assessed as cell survival at 10 ug/ml after 24 hr by MTT assay (reference value: 100%); type: functional; conditions: MCF7, 24 h, read-out: Survival
MCF7 [5] = assay: Anticancer activity against Homo sapiens (human) MCF-7 cells assessed as cell survival at 100 ug/ml after 24 hr by MTT assay (reference value: 100%); type: functional; conditions: MCF7, 24 h, read-out: Survival
[6] = test system: Radical scavenging activity; assay: Antioxidant activity assessed as DPPH radical scavenging activity after 20 min by ELISA plate reader analysis; type: functional
[7] = Antioxidant activity assessed as ABTS radical scavenging activity after 20 min by ELISA plate reader analysis; type: functional
MCF7 [8] = assay: Induction of apoptotic DNA fragmentation in Homo sapiens (human) MCF-7 cells assessed as increase in olive tail moment after 24 hr by comet assay; type: functional, cell-based
MCF7 [9] = assay: Induction of apoptotic DNA fragmentation in Homo sapiens (human) MCF7 cells assessed as increase in tail length after 24 hr by comet assay; type: functional, cell-based
MCF7 [10] = assay: Induction of apoptotic DNA fragmentation in Homo sapiens (human) MCF-7 cells assessed as formation of comets at 50 ug/ml after 24 hr by comet assay; type: functional, cell-based
MCF7 [11] = assay: Induction of apoptotic DNA fragmentation in Homo sapiens (human) MCF-7 cells assessed as increase in tail length at 0.1 uM after 24 hr by comet assay; type: functional, cell-based
MCF7 [12] = assay: Induction of apoptotic DNA fragmentation in Homo sapiens (human) MCF-7 cells assessed as increase in olive tail moment at 0.1 uM after 24 hr by comet assay; type: functional, cell-based
MCF7 [13] = assay: Induction of apoptotic DNA fragmentation in Homo sapiens (human) MCF-7 cells assessed as formation of comets at 54 ug/ml after 24 hr by comet assay; type: functional, cell-based

Compound | viability at 0.1 µg/mL (MCF7 [1]) | viability at 1 µg/mL (MCF7 [2]) | IC50 (MCF7 [3]) | viability at 10 µg/mL (MCF7 [4]) | viability at 100 µg/mL (MCF7 [5]) | IC50 [6] | IC50 [7] | Activity (MCF7 [8]) | Activity (MCF7 [9]) | Activity (MCF7 [10]) | Activity (MCF7 [11]) | Activity (MCF7 [12]) | Activity (MCF7 [13])
O=C1CSC(c2c[nH]nc2-c2ccc(Cl)cc2)N1n1c(S)nnc1COc1ccc2ccccc2c1 (stereo not given) | 99.7% | 100% | 100 mg/L (≈ 187 µM) | 81.4% | 50.7% | – | – | – | – | – | – | – | –
O=C1O[C@H]([C@@H](O)CO)C(O)=C1O [ASCORBIC ACID] | – | – | – | – | – | 18.74 mg/L (≈ 106 µM) | 31.53 mg/L (≈ 179 µM) | – | – | – | – | – | –
COc1ccc(-c2n[nH]cc2C2SCC(=O)N2n2c(S)nnc2COc2ccc(C)cc2)cc1 (stereo not given) | 95% | 95.4% | 78 mg/L (≈ 158 µM) | 90.2% | 43.7% | – | – | – | – | – | – | – | –
O=C1CSC(c2c[nH]nc2-c2ccc(F)cc2)N1n1c(S)nnc1COc1ccccc1 (stereo not given) | 65.9% | 69.4% | 30 mg/L (≈ 64 µM) | 76.5% | 33.6% | 27.16 mg/L (≈ 58 µM) | 143.67 mg/L (≈ 307 µM) | Dose-dependent effect | Dose-dependent effect | Active | – | – | –
O=C1CSC(c2c[nH]nc2-c2ccc(Cl)cc2)N1n1c(S)nnc1COc1cccc2ccccc12 (stereo not given) | 101% | 70.5% | 100 mg/L (≈ 187 µM) | 60.3% | 51.8% | – | – | – | – | – | – | – | –
COc1ccc(-c2n[nH]cc2C2SCC(=O)N2n2c(S)nnc2COc2ccccc2)cc1 (stereo not given) | 100% | 100% | 85 mg/L (≈ 177 µM) | 96.8% | 46.5% | – | – | – | – | – | – | – | –
Cc1ccccc1OCc1nnc(S)n1N1C(=O)CSC1c1c[nH]nc1-c1ccc(F)cc1 (stereo not given) | 81.4% | 83.1% | > 100 mg/L | 92.5% | 62.1% | – | – | – | – | – | – | – | –
O=C1CSC(c2c[nH]nc2-c2ccc(F)cc2)N1n1c(S)nnc1COc1ccc2ccccc2c1 (stereo not given) | 100% | 100% | > 100 mg/L | 99.8% | 96.5% | – | – | – | – | – | – | – | –
COc1ccc(-c2n[nH]cc2C2SCC(=O)N2n2c(S)nnc2COc2ccccc2C)cc1 (stereo not given) | 81.5% | 87% | 29 mg/L (≈ 58.6 µM) | 84.7% | 25.4% | 46.95 mg/L (≈ 94.9 µM) | 165.78 mg/L (≈ 335 µM) | Dose-dependent effect | Dose-dependent effect | Active | – | – | –
COc1cccc2c1C(=O)c1c(O)c3c(c(O)c1C2=O)C[C@@](O)(C(=O)CO)C[C@@H]3O[C@H]1C[C@H](N)[C@H](O)[C@H](C)O1 | – | – | – | – | – | – | – | – | – | – | Active | Active | Active
Cc1ccccc1OCc1nnc(S)n1N1C(=O)CSC1c1c[nH]nc1-c1ccc(Cl)cc1 (stereo not given) | 70% | 80.7% | 22 mg/L (≈ 44.1 µM) | 67.6% | 13.2% | 31.52 mg/L (≈ 63.2 µM) | 73.03 mg/L (≈ 146 µM) | Dose-dependent effect | Dose-dependent effect | Active | – | – | –
Cc1ccc(OCc2nnc(S)n2N2C(=O)CSC2c2c[nH]nc2-c2ccc(F)cc2)cc1 (stereo not given) | 80.8% | 74.7% | > 100 mg/L | 87.5% | 71.4% | – | – | – | – | – | – | – | –
